Here are results for 3 molecules from patent US7247650B2, “Macrolides and methods for producing same” (Wyeth, priority 2004, dated 2007).

A word on the EC50: it is the concentration at which the effect is half-maximal.

Holding throughout (type): cell-based, rat
Assay [1] relates to cultured dopaminergic neurons. The assay can be described thus: High-affinity 3H-dopamine uptake after MPP+ induced toxicity. Here is the method: Mesencephalic dopaminergic neuron cultures were prepared as previously described in Pong et al., J Neurochem. 69: 986–994 (1997). Embryonic day 15 (E15) rat fetuses were collected and dissected in ice-cold phosphate-buffered saline (PBS). The ventral piece of tissue compromising the mesencephalic dopaminergic region was dissected out. Dissected pieces of tissue were pooled together and transferred to an enzymatic dissociation medium containing 20 IU/ml papain in Earle's balanced salt solution (Worthington Biochemical, Freehold, N.J., U.S.A.) and incubated for 60 minutes at 37° C. After enzymatic dissociation, the papain solution was aspirated and the tissue mechanically triturated with a fire-polished glass Pasteur pipette in complete medium [equal volumes of minimum essential medium (MEM) and F-12 nutrient mixture (Gibco BRL) supplemented with 0.1 mg/ml apotransferrin and 2.5 μg/ml insulin] containing 2,000 IU/ml DNase and 10 mg/ml ovomucoid protease inhibitor.
For dopamine uptake experiments, single-cell suspensions in complete media were seeded on poly-L-ornithine and laminin coated 24-well plates. The cultures were maintained for seven days prior to experimentation. Cultures were pretreated with various concentrations of the compound of formula (I) (washed with PBS and diluted with media to concentrations of 1 nM to 1000 nM) for 24 hours, then exposed to 10 μM the neurotoxin 1-methyl-4-phenylpyridinium (MPP^+) for 1 hour to assess the neuroprotective effect of the compound of formula (I) in cell culture. Following the 1 hour incubation, media was exchanged three times and fresh compound was added for an additional 48 hours.
More particularly, after 48 hours growth of mesencephalic dopaminergic neuron cultures following MPP^+ exposure, high-affinity ^3H-dopamine uptake was performed using a modified method described by Prochiantz et al., Nature 293: 570–572 (1981). Cultures were washed with pre-warmed phosphate-buffered saline (PBS) containing 5.6 mM glucose and 1 mM ascorbic acid. Cultures were then incubated for 15 minutes at 37° C. with 50 nM ^3H-dopamine (31 Ci/mmol, Du Pont-NEN, Wilmington, Del., U.S.A.). The cultures were washed twice with buffer and lysed with 0.5 N NaOH. The lysate was transferred to a scintillation vial containing Ultima Gold scintillation cocktail and radioactivity was determined with a liquid scintillation counter. Alternatively, culture lysates can be washed twice with buffer, incubated for 2 hours at room temperature with Optiphase Supermix scintillation cocktail (Wallac Scintillation Products, Gaithersburg, Md., USA), and radioactivity measured with a liquid scintillation counter.

Assay [2] relates to cultured cortical neurons. Put plainly: Neurofilament content in cultured cortical neurons. Here is the method: Dissociated cortical neuron cultures were prepared as previously described [Pong et al., Exp Neurol. 2001 September; 171(1):84–97 (2001)]. Briefly, embryonic day 15 rat fetuses were collected and dissected in ice-cold PBS. Dissected cortices were pooled together and transferred to an enzymatic dissociation medium containing papain. After 30 min, the tissue was mechanically triturated with a fire-polished glass Pasteur pipette. Single-cell suspensions in complete media were seeded on poly-L-ornithine and laminin coated 96-well plates. 24 hours later, cultures were treated with various concentrations of compound of formula (I) for 72 hours. The cultures were then fixed and stained with a neurofilament primary antibody and a peroxidase-tagged secondary antibody. A peroxidase substrate (K-Blue Max) was added and the colorimetric change was measure on a colorimetric plate reader.

The subject of assay [3] is cultured cortical neurons. The assay can be described thus: Neurite outgrowth (total neurite length per cell) in cultured cortical neurons. Further details: unit of the concentration uncertain. As to conditions: 72 hours. Here is the method:
Dissociated cortical neuron cultures were prepared as previously described (Pong et al., cited above, 2001). Briefly, embryonic day 15 rat fetuses were collected and dissected in ice-cold PBS. Dissected cortices were pooled together and transferred to an enzymatic dissociation medium containing papain. After 30 minutes, the tissue was mechanically triturated with a fire-polished glass Pasteur pipette. Single-cell suspensions in complete media were seeded on poly-L-ornithine and laminin coated 96-well plates. After 24 hours, cultures were treated with various concentrations of the compound of formula I for 72 hours. The cultures were then fixed and stained with an anti-tubulin primary antibody (TUJ-1) and a fluorescent-tagged secondary antibody. Neurite outgrowth was determined by using the Enhanced Neurite Outgrowth (ENO) algorithm with the Cellomics ArrayScan and expressed as total neurite length per cell.

The test system of assay [4] is cultured dorsal root ganglia. Put plainly: Neurite outgrowth (total neurite length per cell) in cultured dorsal root ganglia. Further details: unit of the concentration uncertain. Conditions: 72 hours. Here is the method:
Dissociated dorsal root ganglia cultures were prepared as previously described [A. Wood et al., “Stimulation of neurite outgrowth by immunophilin ligands: quantitative analysis by Cellomics Array scan” Society for Neuroscience (2004), abstract 104.3] Briefly, postnatal day 3–5 rat pups were euthanized. The spinal columns were removed and individual dorsal root ganglia (DRG) were dissected out. Dissected DRG were pooled together and transferred to an enzymatic dissociation medium containing papain. After 60 minutes, the tissue was mechanically triturated with a fire-polished glass Pasteur pipette. Single-cell suspensions in complete media were seeded on poly-L-ornithine and laminin coated 96-well plates. After 24 hours, cultures were treated with various concentrations of the compound of formula I for 72 hours. The cultures were then fixed and stained with an anti-tubulin primary antibody (TUJ-1) and a fluorescent-tagged secondary antibody. Neurite outgrowth was determined by using the Enhanced Neurite Outgrowth (ENO) algorithm with the Cellomics ArrayScan and expressed as total neurite length per cell.

In the case of `C[n+]1ccc(-c2ccccc2)cc1` [MPP^+, 1-methyl-4-phenylpyridinium, reference compound], in assay [1] (10 μM MPP+ for 1 hour, no test compound), the “3H-DOPAMINE UPTAKE (% UNTREATED CONTROL)” value was found to be 40% UNTREATED CONTROL.

For `CC/C1=C\CC(/C(C)=C/C(C)C(C)O)OC(=O)C2CCCN2C(=O)C(=O)C2(O)OC(CCC2C)CC(O)C(C)C(O)CC(O)CC(O)/C(C)=C/C(C)CC(C)C1O` (stereo not shown) [Compound (I), prolylmeridamycin], the “3H-DOPAMINE UPTAKE (% UNTREATED CONTROL)” value in assay [1] (1 nM compound, 24 h pretreatment, 10 μM MPP+ 1 hour, 48 h after) was 45% UNTREATED CONTROL; in assay [1] (10 nM compound, 24 h pretreatment, 10 μM MPP+ 1 hour, 48 h after) it was 52% UNTREATED CONTROL; in assay [1] (100 nM compound, 24 h pretreatment, 10 μM MPP+ 1 hour, 48 h after), 61% UNTREATED CONTROL; in assay [1] (1000 nM compound, 24 h pretreatment, 10 μM MPP+ 1 hour, 48 h after), 72% UNTREATED CONTROL. Further, the EC50 in assay [1] (Rattus norvegicus, Neuron, relative to maximum protection (84% uptake) afforded by 10 ng/mL GDNF, read-out: EC50, neuroprotection against MPP+-induced neurotoxicity) came out at 110 nM; in assay [2] (Rattus norvegicus, Cortical neurone, 72 hours, neurofilament content, read-out: EC50, increased neuronal survival in cultured cortical neurons) it was 21 nM. The “potency compared with meridamycin” value in assay [1] (similar study with meridamycin) and in assay [2] (similar study with meridamycin) was “more potent” each time. In addition, the “NEUROFILAMENT CONTENT (FOLD-INCREASE ABOVE UNTREATED CONTROL)” value is given as 1.54 FOLD-INCREASE ABOVE UNTREATED CONTROL in assay [2] (10 nM, 72 hours); 2.22 FOLD-INCREASE ABOVE UNTREATED CONTROL in assay [2] (100 nM, 72 hours); 2.34 FOLD-INCREASE ABOVE UNTREATED CONTROL in assay [2] (1 μM, 72 hours); 2.26 FOLD-INCREASE ABOVE UNTREATED CONTROL in assay [2] (10 μM, 72 hours). Further, the “Total Neurite Length (% Above Control)” value was 30% Above Control in assay [3] (10 nM); 51% Above Control in assay [3] (100 nM); 120% Above Control in assay [3] (1 (unit uncertain)); 178% Above Control in assay [3] (10 (unit uncertain)); 2% Above Control in assay [4] (10 nM); 7% Above Control in assay [4] (100 nM). The “Total Neurite Length (% Above Control)” value is reported as 21% Above Control in assay [4] (1 (unit uncertain)) and 44% Above Control in assay [4] (10 (unit uncertain)).

B1: glial cell line-derived neurotrophic factor (protein, UniProt P39905 78-211, looked up)
Glial cell line-derived …: SPDKQMAVLPRRERNRQAAAANPENSRGKGRRGQRGKNRGCVLTAIHLNVTDLGLGYETKEELIFRYCSGSCDAAETTYDKILKNLSRNRRLVSDKVGQACCRPIAFDDDLSFLDDNLVYHILRKHSAKRCGCI
notes: glial cell line-derived neurotrophic factor, gives maximum protection in the dopamine uptake assay
Consider B1, for which, in assay [1] (10 ng/mL GDNF, MPP+-induced neurotoxicity), the “maximum protection (% uptake)” value turned out to be 84 % uptake.
